Test results taken from ChEMBL document CHEMBL1938312, “Design and combinatorial synthesis of a novel kinase-focused library using click chemistry-based fragment assembly” (Bioorg Med Chem Lett, 2012).
Calls of active or inactive are those of the source. No cut-off for these calls is given here.

How the values were obtained:
[1] = biological target: Tyrosine-protein kinase Lck (Homo sapiens) (UniProt P06239); experiment: Inhibition of LCK at 10 uM by colorimetric analysis
[2] = biological target: High affinity nerve growth factor receptor (Homo sapiens) (UniProt P04629); experiment: Inhibition of TRKA at 10 uM by colorimetric analysis
Sequence of High affinity nerve growth factor receptor (Homo sapiens) (P04629 33-796 limits assumed): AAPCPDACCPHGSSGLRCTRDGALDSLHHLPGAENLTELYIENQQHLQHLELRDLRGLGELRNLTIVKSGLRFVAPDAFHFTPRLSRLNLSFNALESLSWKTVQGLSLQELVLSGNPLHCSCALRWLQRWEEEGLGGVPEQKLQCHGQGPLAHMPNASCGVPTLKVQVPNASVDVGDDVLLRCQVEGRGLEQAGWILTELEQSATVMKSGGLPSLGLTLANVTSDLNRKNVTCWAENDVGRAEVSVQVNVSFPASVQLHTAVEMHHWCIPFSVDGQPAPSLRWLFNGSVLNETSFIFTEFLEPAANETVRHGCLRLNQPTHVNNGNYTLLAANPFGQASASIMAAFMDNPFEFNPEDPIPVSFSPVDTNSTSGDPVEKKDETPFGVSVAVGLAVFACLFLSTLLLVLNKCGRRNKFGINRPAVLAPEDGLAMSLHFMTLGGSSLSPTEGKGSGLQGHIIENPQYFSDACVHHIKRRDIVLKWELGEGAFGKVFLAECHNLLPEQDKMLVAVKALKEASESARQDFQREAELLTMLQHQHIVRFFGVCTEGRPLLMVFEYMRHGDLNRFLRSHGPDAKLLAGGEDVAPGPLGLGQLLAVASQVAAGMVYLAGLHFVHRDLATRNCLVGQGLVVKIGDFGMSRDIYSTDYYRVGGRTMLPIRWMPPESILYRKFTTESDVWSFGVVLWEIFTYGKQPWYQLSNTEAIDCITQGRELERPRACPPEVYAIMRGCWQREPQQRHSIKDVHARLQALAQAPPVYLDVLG

[3] = biological target: T1, 5'-AMP-activated protein kinase subunit beta-1 (Homo sapiens) (UniProt Q9Y478); experiment: Inhibition of AMPKbeta1 at 10 uM by colorimetric analysis
T1 sequence (whole entry): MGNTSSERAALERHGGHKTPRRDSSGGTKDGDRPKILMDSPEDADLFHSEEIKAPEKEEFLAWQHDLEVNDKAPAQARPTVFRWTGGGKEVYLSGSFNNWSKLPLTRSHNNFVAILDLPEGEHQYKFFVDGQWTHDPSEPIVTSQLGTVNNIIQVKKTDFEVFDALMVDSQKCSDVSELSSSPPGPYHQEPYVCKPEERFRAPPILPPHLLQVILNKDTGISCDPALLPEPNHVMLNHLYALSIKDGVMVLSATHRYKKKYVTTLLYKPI

[4] = biological target: T2, Serine/threonine-protein kinase Chk1 (Homo sapiens) (UniProt O14757); experiment: Inhibition of CHK1 at 10 uM by colorimetric analysis
T2 sequence (whole entry): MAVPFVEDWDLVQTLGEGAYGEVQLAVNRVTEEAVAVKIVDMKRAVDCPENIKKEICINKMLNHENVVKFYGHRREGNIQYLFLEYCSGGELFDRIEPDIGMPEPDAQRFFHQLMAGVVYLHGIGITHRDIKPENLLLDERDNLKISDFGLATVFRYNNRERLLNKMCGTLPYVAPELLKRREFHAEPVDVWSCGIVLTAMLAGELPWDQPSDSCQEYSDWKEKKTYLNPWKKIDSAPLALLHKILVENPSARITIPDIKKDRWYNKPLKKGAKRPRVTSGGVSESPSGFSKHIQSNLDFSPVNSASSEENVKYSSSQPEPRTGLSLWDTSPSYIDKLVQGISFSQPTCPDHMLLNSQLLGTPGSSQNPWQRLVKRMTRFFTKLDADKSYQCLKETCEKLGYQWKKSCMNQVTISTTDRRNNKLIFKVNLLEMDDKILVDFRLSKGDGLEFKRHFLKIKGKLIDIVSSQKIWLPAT

[5] = biological target: Casein kinase I isoform epsilon (Homo sapiens) (UniProt P49674); experiment: Inhibition of CK1epsilon at 10 uM by colorimetric analysis
Sequence of Casein kinase I isoform epsilon (Homo sapiens) (P49674 whole entry, looked up, canonical isoform): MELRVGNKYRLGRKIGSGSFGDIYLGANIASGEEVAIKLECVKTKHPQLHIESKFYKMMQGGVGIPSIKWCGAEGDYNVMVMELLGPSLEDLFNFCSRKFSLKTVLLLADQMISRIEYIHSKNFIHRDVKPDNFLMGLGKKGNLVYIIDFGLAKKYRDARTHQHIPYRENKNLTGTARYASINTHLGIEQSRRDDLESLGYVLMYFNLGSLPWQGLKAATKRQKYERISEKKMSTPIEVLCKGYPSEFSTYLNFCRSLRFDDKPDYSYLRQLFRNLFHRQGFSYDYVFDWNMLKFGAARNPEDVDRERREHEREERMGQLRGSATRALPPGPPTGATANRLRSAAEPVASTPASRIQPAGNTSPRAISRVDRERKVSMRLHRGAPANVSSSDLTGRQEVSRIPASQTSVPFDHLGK

[6] = biological target: Mitogen-activated protein kinase 1 (Homo sapiens) (UniProt P28482); experiment: Inhibition of Erk2 at 10 uM by colorimetric analysis
Sequence of Mitogen-activated protein kinase 1 (Homo sapiens) (P28482 whole entry): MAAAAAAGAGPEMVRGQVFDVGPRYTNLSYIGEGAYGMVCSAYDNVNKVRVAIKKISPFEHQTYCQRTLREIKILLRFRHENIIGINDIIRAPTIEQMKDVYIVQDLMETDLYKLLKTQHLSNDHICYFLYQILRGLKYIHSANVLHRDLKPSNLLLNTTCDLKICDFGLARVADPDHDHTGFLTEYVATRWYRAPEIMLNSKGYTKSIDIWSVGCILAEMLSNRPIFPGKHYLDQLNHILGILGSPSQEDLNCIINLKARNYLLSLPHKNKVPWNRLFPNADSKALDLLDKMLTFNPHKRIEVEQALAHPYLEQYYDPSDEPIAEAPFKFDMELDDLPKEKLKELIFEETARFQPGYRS

[7] = biological target: Serine/threonine-protein kinase pim-1 (Homo sapiens) (UniProt P11309); experiment: Inhibition of PIM1 at 10 uM by colorimetric analysis
Sequence of Serine/threonine-protein kinase pim-1 (Homo sapiens) (P11309 whole entry, looked up): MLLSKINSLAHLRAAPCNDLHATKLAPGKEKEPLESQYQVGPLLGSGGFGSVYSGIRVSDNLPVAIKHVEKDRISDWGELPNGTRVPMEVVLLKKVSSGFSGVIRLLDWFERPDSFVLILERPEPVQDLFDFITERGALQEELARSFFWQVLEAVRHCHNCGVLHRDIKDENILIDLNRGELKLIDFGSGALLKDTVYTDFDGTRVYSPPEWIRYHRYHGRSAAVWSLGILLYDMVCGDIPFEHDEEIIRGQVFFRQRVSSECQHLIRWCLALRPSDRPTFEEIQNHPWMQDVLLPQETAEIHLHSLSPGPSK

[8] = biological target: Glycogen synthase kinase-3 beta (Homo sapiens, UniProt P49841); experiment: Inhibition of GSK3-beta by colorimetric analysis
Sequence of Glycogen synthase kinase-3 beta (P49841 whole entry): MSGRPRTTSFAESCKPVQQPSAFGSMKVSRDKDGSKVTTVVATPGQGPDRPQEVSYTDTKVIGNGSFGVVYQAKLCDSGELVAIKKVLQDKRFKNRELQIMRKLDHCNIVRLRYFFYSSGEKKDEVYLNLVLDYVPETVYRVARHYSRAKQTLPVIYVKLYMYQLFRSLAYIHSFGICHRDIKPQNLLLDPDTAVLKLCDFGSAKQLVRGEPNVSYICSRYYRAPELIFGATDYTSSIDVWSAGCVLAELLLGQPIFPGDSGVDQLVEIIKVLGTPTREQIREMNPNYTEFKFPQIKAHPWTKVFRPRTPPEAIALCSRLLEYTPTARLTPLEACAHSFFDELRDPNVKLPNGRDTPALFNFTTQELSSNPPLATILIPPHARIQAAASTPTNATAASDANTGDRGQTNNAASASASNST

Sequence of Tyrosine-protein kinase Lck (Homo sapiens) (P06239 2-509 limits assumed): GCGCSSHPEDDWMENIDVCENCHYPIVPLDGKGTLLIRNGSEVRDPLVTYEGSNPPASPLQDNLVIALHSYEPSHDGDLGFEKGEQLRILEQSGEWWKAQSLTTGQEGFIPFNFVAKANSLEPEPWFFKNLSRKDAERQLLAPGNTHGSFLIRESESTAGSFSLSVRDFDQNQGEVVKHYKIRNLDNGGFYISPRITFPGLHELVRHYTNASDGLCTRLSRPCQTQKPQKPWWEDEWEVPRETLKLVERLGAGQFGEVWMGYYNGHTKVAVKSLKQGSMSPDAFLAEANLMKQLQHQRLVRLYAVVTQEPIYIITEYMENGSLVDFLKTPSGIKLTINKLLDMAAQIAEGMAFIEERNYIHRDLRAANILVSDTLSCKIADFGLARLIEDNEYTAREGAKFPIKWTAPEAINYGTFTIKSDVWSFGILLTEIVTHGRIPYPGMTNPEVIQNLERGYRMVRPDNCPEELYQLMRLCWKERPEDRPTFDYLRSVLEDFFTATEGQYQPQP

| Structure (SMILES) | inhibition [1] | inhibition [2] | inhibition [3] | inhibition [4] | inhibition [5] | inhibition [6] | inhibition [7] | IC50 [8] [µM] |
| --- | --- | --- | --- | --- | --- | --- | --- | --- |
| Clc1ccc(-n2cc(-c3ccncc3)nn2)cc1 | inactive | inactive | Active | Active | Active | Active | Active | 1.1 |
| Clc1cccc(-n2cc(-c3ccncc3)nn2)c1 | inactive | inactive | Active | Active | Active | Active | Active | 1.8 |
| Clc1ccc(-n2nncc2-c2ccncc2)cc1 | inactive | inactive | Active | Active | Active | Active | Active |  |
| Clc1cccc(-n2nncc2-c2ccncc2)c1 | inactive | inactive | Active | Active | Active | Active | Active |  |
